Results reported in the supplement of paper PMC10307832.

Columns and labels:
Assay in all cases: relative viability (nuclei count vs DMSO), 5 days (fraction); higher = more cells survive
[1] = compound: CC1=NN=C(O1)C2=NN=C(C=C2)N3CCC(CC3)OC4=C(C=CC(=C4)F)Cl + C[C@@H](Oc1cc(-c2cnn(C3CCNCC3)c2)cnc1N)c1c(Cl)ccc(F)c1Cl [Crizotinib] (partner 1 µM)
Outline: (§1)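 A single step with final 0.05% Triton X-100, 1% formaldehyde and 1 ug/ml Hoechst fixed the cells and stained nuclei 5 days after treatment. Lung cancer cell lines in 1536-well plates had been treated by pin tool the day after seeding with one drug alone or a fixed anchor-drug dose plus five library-drug doses (not always all listed) in √10 steps, and nuclei were counted on 4× images. Relative viability is the ratio of nuclei in treated wells to nuclei in vehicle wells, taken as the median of duplicate plates.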

[2] = compound: CC1=NN=C(O1)C2=NN=C(C=C2)N3CCC(CC3)OC4=C(C=CC(=C4)F)Cl + CC(=O)Nc1cccc(-n2c(=O)n(C3CC3)c(=O)c3c(Nc4ccc(I)cc4F)n(C)c(=O)c(C)c32)c1 [Trametinib] (partner 0.02 µM)
Outline: as §1

Tosedostat + Olaparib = compound: CC(C)C[C@@H](C(=O)N[C@H](C(=O)OC1CCCC1)c1ccccc1)[C@H](O)C(=O)NO [Tosedostat] + O=C(c1cc(Cc2n[nH]c(=O)c3ccccc23)ccc1F)N1CCN(C(=O)C2CC2)CC1 [Olaparib] (partner 8 µM)
Outline: as §1

[3] = compound: CC1=NN=C(O1)C2=NN=C(C=C2)N3CCC(CC3)OC4=C(C=CC(=C4)F)Cl + COc1cccc2cc(-c3nc([C@H]4CC[C@H](C(=O)O)CC4)n4ncnc(N)c34)[nH]c12 [OSI-027] (partner 0.5 µM)
Outline: as §1

Cell Line | relative viability ([1]; first compound 0.8 µM) | relative viability ([1]; first compound 2.53 µM) | relative viability ([1]; first compound 8 µM) | relative viability ([2]; first compound 0.253 µM) | relative viability ([2]; first compound 0.8 µM) | relative viability ([2]; first compound 2.53 µM) | relative viability ([2]; first compound 8 µM) | relative viability (Tosedostat + Olaparib; first compound 0.02 µM) | relative viability (Tosedostat + Olaparib; first compound 0.06325 µM) | relative viability (Tosedostat + Olaparib; first compound 0.2 µM) | relative viability (Tosedostat + Olaparib; first compound 0.6325 µM) | relative viability (Tosedostat + Olaparib; first compound 2 µM) | relative viability ([3]; first compound 0.8 µM) | relative viability ([3]; first compound 2.53 µM) | relative viability ([3]; first compound 8 µM) | relative viability ([1]; first compound 0.253 µM) | relative viability ([3]; first compound 0.253 µM)
NCI-H1650 | 0.748 | 0.806 | 0.803 | 0.352 | 0.482 | 0.481 | 0.49 | 0.768 | 0.732 | 0.754 | 0.515 | 0.594 | 0.472 | 0.626 | 0.615 |  | 
A-427 |  | 0.779 | 0.671 | 0.818 | 0.711 | 0.869 | 0.825 | 0.763 | 0.674 | 0.708 | 0.757 | 0.747 |  | 0.428 | 0.404 | 0.826 | 0.498
NCI-H650 | 0.692 | 0.64 | 0.818 | 0.933 | 0.874 | 0.934 | 0.862 | 0.368 | 0.362 | 0.381 | 0.271 | 0.219 | 0.447 | 0.528 | 0.437 | 0.691 | 0.553
NCI-H1792 | 0.447 | 0.378 | 0.451 | 0.359 | 0.398 | 0.647 | 0.487 | 0.481 | 0.425 | 0.386 | 0.317 | 0.432 | 0.587 | 0.686 | 0.731 | 0.414 | 0.547
NCI-H2009 | 0.529 | 0.547 | 0.465 | 0.257 | 0.23 | 0.233 | 0.174 | 0.702 | 0.592 | 0.661 | 0.603 | 0.544 | 0.618 | 0.605 | 0.564 | 0.565 | 0.673
NCI-H1975 | 0.918 | 0.782 | 0.777 | 0.171 | 0.307 | 0.373 | 0.385 | 0.909 | 0.8 | 0.824 | 0.63 | 0.659 | 0.529 | 0.754 | 0.695 |  | 
LOU-NH91 | 0.654 | 0.703 | 0.749 |  | 0.722 | 0.744 | 0.77 | 0.948 | 0.901 | 0.893 | 0.79 | 0.768 | 0.645 | 0.706 | 0.69 |  | 0.693
EMC-BAC-2 | 0.648 | 0.632 | 0.545 | 0.873 | 0.736 | 0.791 | 0.65 | 0.517 | 0.41 | 0.459 | 0.428 | 0.378 | 0.382 | 0.354 | 0.417 | 0.583 | 0.441
LK-2 | 0.246 | 0.24 | 0.259 | 0.728 | 0.732 | 0.867 | 0.828 | 0.615 | 0.798 | 0.583 | 0.592 | 0.437 | 0.23 | 0.311 | 0.234 | 0.216 | 0.265
NCI-H2405 | 0.428 | 0.465 | 0.428 | 0.526 | 0.451 | 0.432 | 0.411 | 0.972 | 0.902 | 0.856 | 0.777 | 0.697 | 0.549 | 0.634 | 0.616 | 0.503 | 0.607
